Results published in patent US20260240976A1, “T[…] VACCINES BASED ON VALIDATED TARGET EPITOPES” (Deutsches Krebsforschungszentrum Stiftung des öffentlichen …, priority 2023, published 2026).

How the values were obtained:
[1] = system: short-term antigen-specific T cell lines generated from PBMCs; assay: Interferon-γ ELISpot assay on short-term antigen-specific T cell lines; assay type: cell-based, human; conditions: for rates of immunoactivation in PBMC samples, CD8 T cell responses and/or numbers of HPV16 positive cell lines presenting the peptide as HLA-complexes: comparison among the peptides in Table 1
[2] = system: peptide-specific T cell cultures; assay: T cell phenotyping and intracellular cytokine staining (IFN-gamma, TNF-alpha); assay type: cell-based, human; parameters: key: +: cytokine: Immunogenicity of the peptide shown by intracellular cytokine staining (IFN-gamma, TNF-alpha); +*: *highlights data from published resources.; *highlights data from published resources
Method: To characterize and quantify the responsive cells upon peptide stimulation, the peptide-specific T cell cultures with positive ELISpot results were further analyzed with T cell phenotyping and intracellular cytokine staining (ICS) assessed by flow cytometry.
The cells of the respective continued short-term T cell culture as well as the DMSO-stimulated and an unresponsive T cell line were harvested into 2 mL reaction tubes and centrifuged at 400×g for 10 min. The supernatant was discarded and the pellet of the unresponsive T cell line was resuspended in 100 μL ELISpot medium and used as unstimulated and unstained control. The pellets of the responsive and the DMSO-stimulated T cell lines were resuspended in 200 μL ELISpot medium and split equally into two wells of a V-bottom 96-well plate. One well of the responsive T cell lines was re-stimulated with 10 μg/mL of its specific peptide while the other well was mock stimulated with 0.1% (v/v) DMSO. As positive control, one well of the DMSO-stimulated T cell line was activated by treatment with 20 ng/ml Phorbol 12-myristate 13-acetate and 1 μM lonomycin. Then, 1:10 diluted GolgiStop (containing monensin) and 1:15 diluted GolgiPlug (containing brefeldin A) were added to all wells to inhibit intracellular transport processes. Monensin inhibits the trans-Golgi transport, while brefeldin A inhibits transport between the ER and the Golgi (Chardin and McCormick, 1999; Mollenhauer et al., 1990). The stimulated cells were incubated for 5 h at standard culture conditions.
After incubation, the cells were resuspended, centrifuged at 400×g for 5 min and the supernatant was discarded. Then, the cells were resuspended in 50 μL cold staining buffer (unstained) or 50 μL cold staining buffer containing the phenotyping antibodies against CD3, CD4, CD8 and the LIVE/DEAD™ Fixable Near-IR Dead Cell Stain (unstimulated and stimulated) and incubated at 4° C. for 30 min. After the surface staining, the cells were washed twice with 200 μL staining buffer and centrifugation at 1400 rpm, followed by fixation with 1% paraformaldehyde (PFA) solution for 15 min at 4° C. All following centrifugation steps were carried out at 1400 rpm for 5 min. After fixation, the cells were again washed twice with 200 μL cold staining buffer and were then resuspended in 100 μL 1× perm/wash buffer diluted in PBS (provided is 10×) for 15 min at 4° C. for cell membrane permeabilization. Subsequently, the plate was centrifuged and the supernatant was discarded. The cells were resuspended in 50 μL perm/wash buffer diluted in PBS (unstained) or 50 μL perm/wash buffer containing the intracellular cytokine antibodies against IFNγ, TNFα and granzyme B (unstimulated and stimulated) for 30 min at 4° C. After intracellular cytokine staining, the cells were washed twice with 200 μL 1× perm/wash buffer. Then 100 μL fix/perm solution (provided in the BD Cytofix/Cytoperm kit) were added per well. After 20 min of incubation at 4° C., the cells of each well were washed twice with 200 μL 1× perm/wash buffer before being resuspended in 100 μL staining buffer and stored at 4° C. overnight.
OneComp eBeads™ (eBeads) and ArC™ Amine Reactive Compensation beads (ArC beads) were stained as compensation controls. For each antibody, 50 μL of the eBeads suspension were stained with the same dilution as used for staining the cells. The ArC beads were stained with 1 μL LIVE/DEAD™ Fixable Near-IR Dead Cell Stain stock solution in 50 μL staining buffer. The beads were incubated at 4° C. for 30 min and were then washed two times with 1 mL staining buffer and centrifugation at 400×g. Finally, the stained beads were resuspended in 400 μL staining buffer, one drop of ArC™ negative beads was added to the labelled ArC beads, and all beads were stored at 4° C. overnight.
On the next day, the samples and the single stained compensation controls were acquired at a BD FACS Canto™ II analyzer using the BD FACS Diva Software Version 6. […]

7 (TTDLYCYEQ; Human papillomavirus 16) [compound 7]
ELISpot: Immungenicity of the peptide shown by IFN-gamma ELISPOT analysis ([1]; HLA restriction A01): +
cytokine: Immunogenicity of the peptide shown by intracellular cytokine staining (IFN-gamma, TNF-alpha) ([2]; HLA restriction A01): +

88 (DRAHYNIVTF; Human papillomavirus 16) [compound 88]
ELISpot: Immungenicity of the peptide shown by IFN-gamma ELISPOT analysis ([1]; HLA restriction A24): +
cytokine: Immunogenicity of the peptide shown by intracellular cytokine staining (IFN-gamma, TNF-alpha) ([2]; HLA restriction A24): +

141 (RPRKLPDLCT; Human papillomavirus 16) [compound 141]
ELISpot: Immungenicity of the peptide shown by IFN-gamma ELISPOT analysis ([1]; HLA restriction B07): +
cytokine: Immunogenicity of the peptide shown by intracellular cytokine staining (IFN-gamma, TNF-alpha) ([2]; HLA restriction B07): +

64 (AVCDKCLKFYS; Human papillomavirus 16) [compound 64]
ELISpot: Immungenicity of the peptide shown by IFN-gamma ELISPOT analysis ([1]; HLA restriction A11): +
cytokine: Immunogenicity of the peptide shown by intracellular cytokine staining (IFN-gamma, TNF-alpha) ([2]; HLA restriction A11): +

5 (EYRYYCYSLY; Human papillomavirus 16) [compound 5]
ELISpot: Immungenicity of the peptide shown by IFN-gamma ELISPOT analysis ([1]; HLA restriction A01): +
cytokine: Immunogenicity of the peptide shown by intracellular cytokine staining (IFN-gamma, TNF-alpha) ([2]; HLA restriction A01): +

84 (PYAVCDKCLKF; Human papillomavirus 16) [compound 84]
ELISpot: Immungenicity of the peptide shown by IFN-gamma ELISPOT analysis ([1]; HLA restriction A24): +
cytokine: Immunogenicity of the peptide shown by intracellular cytokine staining (IFN-gamma, TNF-alpha) ([2]; HLA restriction A24): +

97 (RPRKLPQL; Human papillomavirus 16) [compound 97]
ELISpot: Immungenicity of the peptide shown by IFN-gamma ELISPOT analysis ([1]; HLA restriction B07): +
rates of immunoactivation in PBMC samples, CD8 T cell responses and/or numbers of HPV16 positive cell lines presenting the peptide as HLA-complexes [1]: highest rates of immunoactivation in PBMC samples, to induce the strongest CD8 T cell responses, and/or shown to be presented as HLA-complexes by the highest numbers of HPV16 positive cell lines
cytokine: Immunogenicity of the peptide shown by intracellular cytokine staining (IFN-gamma, TNF-alpha) ([2]; HLA restriction B07): +

116 (LCIVYRDGNPY; Human papillomavirus 16) [compound 116]
ELISpot: Immungenicity of the peptide shown by IFN-gamma ELISPOT analysis ([1]; HLA restriction B15): +
cytokine: Immunogenicity of the peptide shown by intracellular cytokine staining (IFN-gamma, TNF-alpha) ([2]; HLA restriction B15): +

107 (KQQLLRREVY; Human papillomavirus 16) [compound 107]
ELISpot: Immungenicity of the peptide shown by IFN-gamma ELISPOT analysis ([1]; HLA restriction B15): +
rates of immunoactivation in PBMC samples, CD8 T cell responses and/or numbers of HPV16 positive cell lines presenting the peptide as HLA-complexes [1]: highest rates of immunoactivation in PBMC samples, to induce the strongest CD8 T cell responses, and/or shown to be presented as HLA-complexes by the highest numbers of HPV16 positive cell lines
cytokine: Immunogenicity of the peptide shown by intracellular cytokine staining (IFN-gamma, TNF-alpha) ([2]; HLA restriction B15): +

137 (RHYCYSLY; Human papillomavirus 16) [compound 137]
ELISpot: Immungenicity of the peptide shown by IFN-gamma ELISPOT analysis ([1]; HLA restriction A03): +
cytokine: Immunogenicity of the peptide shown by intracellular cytokine staining (IFN-gamma, TNF-alpha) ([2]; HLA restriction A03): +

87 (PDRAHYNIVTF; Human papillomavirus 16) [compound 87]
ELISpot: Immungenicity of the peptide shown by IFN-gamma ELISPOT analysis ([1]; HLA restriction A24): +
cytokine: Immunogenicity of the peptide shown by intracellular cytokine staining (IFN-gamma, TNF-alpha) ([2]; HLA restriction A24): +

110 (GQAEPDRAHY; Human papillomavirus 16) [compound 110]
ELISpot: Immungenicity of the peptide shown by IFN-gamma ELISPOT analysis ([1]; HLA restriction B15): +
cytokine: Immunogenicity of the peptide shown by intracellular cytokine staining (IFN-gamma, TNF-alpha) ([2]; HLA restriction B15): +

117 (YRHYCYSVY; Human papillomavirus 16) [compound 117]
ELISpot: Immungenicity of the peptide shown by IFN-gamma ELISPOT analysis ([1]; HLA restriction B15): +
cytokine: Immunogenicity of the peptide shown by intracellular cytokine staining (IFN-gamma, TNF-alpha) ([2]; HLA restriction B15): +

66 (GIVCPICSQK; Human papillomavirus 16) [compound 66]
ELISpot: Immungenicity of the peptide shown by IFN-gamma ELISPOT analysis ([1]; HLA restriction A03): +
cytokine: Immunogenicity of the peptide shown by intracellular cytokine staining (IFN-gamma, TNF-alpha) ([2]; HLA restriction A03): +

59 (FAFRDLCIVYR; Human papillomavirus 16) [compound 59]
ELISpot: Immungenicity of the peptide shown by IFN-gamma ELISPOT analysis ([1]; HLA restriction A11): +
cytokine: Immunogenicity of the peptide shown by intracellular cytokine staining (IFN-gamma, TNF-alpha) ([2]; HLA restriction A11): +

102 (EPDRAHYNIV; Human papillomavirus 16) [compound 102]
ELISpot: Immungenicity of the peptide shown by IFN-gamma ELISPOT analysis ([1]; HLA restriction B07): +
cytokine: Immunogenicity of the peptide shown by intracellular cytokine staining (IFN-gamma, TNF-alpha) ([2]; HLA restriction B07): +

43 (LLMGTLGIVC; Human papillomavirus 16) [compound 43]
ELISpot: Immungenicity of the peptide shown by IFN-gamma ELISPOT analysis ([1]; HLA restriction A02): +
cytokine: Immunogenicity of the peptide shown by intracellular cytokine staining (IFN-gamma, TNF-alpha) ([2]; HLA restriction A02): +

122 (CLKFYSKISEY; Human papillomavirus 16) [compound 122]
ELISpot: Immungenicity of the peptide shown by IFN-gamma ELISPOT analysis ([1]; HLA restriction B15): +
